Results: US9345703B2, “Kappa opioid receptor effectors and uses thereof” (University of Kansas, priority 2011, dated 2016)

Tests used:
MOR [1] = target: T1, MOR (Homo sapiens, UniProt P35372); assay: High content imaging β-arrestin translocation assay, MOR antagonist (MOR HCS); type: cell-based; settings: antagonist; average; read-out: Potency, Antitarget MOR HCS
Description: (§1) In this campaign, two assay platforms were employed to evaluate KOR activity and selectivity: the KOR1 DISCOVERX β-Arrestin […] assay and an imaging based β-arrestin translocation assay for confirmatory and selectivity assays. The KOR1 DISCOVERX β-Arrestin […] assay is a commercial platform for direct measurement of GPCR (G protein-coupled receptor) activation by detection of β-Arrestin binding to the KOR. […] In cells that stably express these fusion proteins, ligand stimulation results in the recruitment of β-Arrestin by the GPCR. This interaction encourages the complementation of the two β-galactosidase fragments resulting in the formation of a functional enzyme that converts substrate in the assay medium to a detectable signal. The imaging based high-content β-arrestin translocation assay is based upon the redistribution of β-Arrestin linked to green fluorescent protein (GFP) to the cell surface and detection (Barak, et al. (1997) J. Biol. Chem. 272:27497-27500).
(§2) Initially, a portion (approximately 290,000 compounds) of the MLSMR compound collection was tested in the KOR1 DISCOVERX β-arrestin primary kappa opioid (KOP) agonist and antagonist screens (PUBCHEM AID 1777 and 1778, respectively) at a single concentration point (10 μM). […] These compounds were concurrently tested in a β-galactosidase counterscreen assay (PUBCHEM AID 1966) to assess the possibility that these compounds might inhibit the reporting enzyme. […] The KOR:DOR:MOR selectivity of the compounds was determined using the analogous β-arrestin translocation assays for the DOR (PUBCHEM AID 2370 and 2357, for agonists and antagonist, respectively) and the MOR (PUBCHEM AID 2352 and 2420, for agonists and antagonists, respectively).

DOR = DOR (Homo sapiens, UniProt P41143); assay: High content imaging β-arrestin translocation assay, DOR antagonist (DOR HCS); type: cell-based; settings: antagonist; average; read-out: Potency, Antitarget DOR HCS
Description: as §1, §2

KOR [2] = target: T2, KOR (Homo sapiens, UniProt P41145); assay: High content imaging β-arrestin translocation assay, KOR antagonist (KOR HCS); type: cell-based
Description: as §1, §2

KOR [3] = target: T2, KOR; assay: KOR1 DISCOVERX β-Arrestin […] assay, antagonist mode (KOR DRX); type: cell-based
Description: as §1, §2

KOR [4] = target: T2, KOR; assay: DISCOVERX β-arrestin […] assay, agonist mode (KOR DRx); type: cell-based; settings: for EC50: agonist, n = 3, read-out: Average Potency KOR DRx; for Emax (%): at highest concentration tested, compared to dynorphin A (Emax=100%)
Description: as §1, with “signal.” for “signal. The imaging based high-content β-arrestin translocation assay is based upon the redistribution of β-Arrestin linked to green fluorescent protein (GFP) to the cell surface and detection (Barak, et al. (1997) J. Biol. Chem. 272:27497-27500).”

KOR [5] = target: T2, KOR; assay: Binding affinity Ki of Table 9
KOR [6] = target: T2, KOR; assay: High content imaging based β-arrestin translocation assay, KOR agonist (KOR HCS); type: cell-based; settings: n = 2, read-out: Average Potency KOR HCS
Description: as §1, §2

MOR [7] = target: T1, MOR; assay: High content imaging based β-arrestin translocation assay, MOR agonist (MOR HCS); type: cell-based; settings: n = 2, read-out: Average Potency MOR HCS
Description: as §1, §2

[8] = antagonist, average, read-out: Potency, Target KOR HCS
[9] = antagonist, average, read-out: Potency, Target KOR DRX

DOR, sequence (P41143 whole entry): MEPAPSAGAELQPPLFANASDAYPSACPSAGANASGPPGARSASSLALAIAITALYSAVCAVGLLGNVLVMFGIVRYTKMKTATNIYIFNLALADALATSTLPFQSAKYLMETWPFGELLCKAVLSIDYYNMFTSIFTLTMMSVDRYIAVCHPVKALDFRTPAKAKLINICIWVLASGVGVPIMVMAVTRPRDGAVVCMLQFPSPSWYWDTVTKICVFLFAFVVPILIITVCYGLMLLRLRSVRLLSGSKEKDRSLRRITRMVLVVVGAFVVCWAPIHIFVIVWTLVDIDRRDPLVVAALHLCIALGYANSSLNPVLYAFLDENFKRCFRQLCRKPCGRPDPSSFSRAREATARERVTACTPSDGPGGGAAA
T1 sequence (P35372 whole entry, the tested form may be a part): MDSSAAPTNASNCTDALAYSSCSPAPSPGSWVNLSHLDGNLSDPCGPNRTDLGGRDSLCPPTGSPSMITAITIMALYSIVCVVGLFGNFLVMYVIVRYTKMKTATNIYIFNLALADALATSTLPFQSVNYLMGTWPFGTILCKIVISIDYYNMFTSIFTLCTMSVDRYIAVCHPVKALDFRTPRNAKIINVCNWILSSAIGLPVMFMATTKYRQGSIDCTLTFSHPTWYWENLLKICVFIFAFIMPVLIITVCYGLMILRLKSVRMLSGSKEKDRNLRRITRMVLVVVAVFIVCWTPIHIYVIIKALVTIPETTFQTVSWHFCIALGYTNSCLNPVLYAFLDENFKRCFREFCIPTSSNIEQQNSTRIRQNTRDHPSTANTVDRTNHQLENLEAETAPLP
T2 sequence (P41145 whole entry): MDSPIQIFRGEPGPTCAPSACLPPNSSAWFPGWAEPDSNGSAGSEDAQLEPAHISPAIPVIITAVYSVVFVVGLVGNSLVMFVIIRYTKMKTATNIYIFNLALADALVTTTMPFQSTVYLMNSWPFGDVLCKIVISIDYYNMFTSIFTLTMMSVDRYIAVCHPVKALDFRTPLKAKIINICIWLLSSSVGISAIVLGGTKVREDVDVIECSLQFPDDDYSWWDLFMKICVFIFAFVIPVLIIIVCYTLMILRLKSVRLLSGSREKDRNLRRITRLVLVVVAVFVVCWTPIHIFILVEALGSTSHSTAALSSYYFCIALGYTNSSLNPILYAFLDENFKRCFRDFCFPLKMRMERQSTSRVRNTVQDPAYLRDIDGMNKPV

| SMILES | IC50 (MOR [1]) | IC50 (DOR) | IC50 (KOR [2]; [8]) | IC50 (KOR [3]; [9]) | IC50 (KOR [2]) | IC50 (KOR [3]) | EC50 (KOR [4]) | Ki (KOR [5]) | EC50 (KOR [6]) | EC50 (MOR [7]) | Emax (%) (KOR [4]) |
| --- | --- | --- | --- | --- | --- | --- | --- | --- | --- | --- | --- |
| COc1ccc(N2CCN(CCCNC(=O)Cn3c(=O)c4cccn4c4ccccc43)CC2)cc1 [1{2}] | > 32 µM | > 32 µM | 15.3 µM | 4.32 µM | – | – | – | – | – | – | – |
| COc1ccc(N2CCN(CCCNC(=O)Cn3c(=O)c4cccn4c4c(C)ccnc43)CC2)c(OC)c1 [1{4}] | 30.9 µM | > 32 µM | 0.004 µM | 0.19 µM | – | – | – | – | – | – | – |
| Cc1ccnc2c1n1cccc1c(=O)n2CC(=O)NCCCN1CCN(c2ccc3c(c2)OCO3)CC1 [1{5}] | 17.2 µM | > 32 µM | 0.045 µM | 0.43 µM | – | – | – | – | – | – | – |
| Cc1ccc(N2CCN(CCCNC(=O)Cn3c(=O)c4cccn4c4c(C)ccnc43)CC2)cc1 [1{7}] | > 32 µM | > 32 µM | 2.28 µM | 0.88 µM | – | – | – | – | – | – | – |
| Cc1ccnc2c1n1cccc1c(=O)n2CC(=O)NCCCN1CCN(c2ccccc2)CC1 [1{8}] | 22.5 µM | > 32 µM | 2.56 µM | 4.95 µM | – | – | – | – | – | – | – |
| COc1ccc(N2CCN(CCCNC(=O)Cn3c(=O)c4cccn4c4cccnc43)CC2)c(OC)c1 [1{9}] | 10.8 µM | > 32 µM | 0.49 µM | 2.65 µM | – | – | – | – | – | – | – |
| Cc1ccc(N2CCN(CCCNC(=O)Cn3c(=O)c4cccn4c4cccnc43)CC2)cc1 [1{12}] | 18.8 µM | > 32 µM | 0.89 µM | 3.68 µM | – | – | – | – | – | – | – |
| COc1ccc(N2CCN(CCCNC(=O)Cn3c(=O)c4cccn4c4cc(Br)cnc43)CC2)cc1 [1{14}] | 10.3 µM | > 32 µM | 0.69 µM | 3.05 µM | – | – | – | – | – | – | – |
| COc1ccc(N2CCN(CCCNC(=O)Cn3c(=O)c4cccn4c4cc(Br)cnc43)CC2)c(OC)c1 [1{16}] | 10.2 µM | > 32 µM | 3.02 µM | 2.82 µM | – | – | – | – | – | – | – |
| Cc1ccc(Cl)cc1N1CCN(CCCNC(=O)Cn2c(=O)c3cccn3c3cccnc32)CC1 [1{24}] | 3.98 µM | > 32 µM | > 32 µM | > 20 µM | – | – | – | – | – | – | – |
| Cc1cccc(N2CCN(CCNC(=O)Cn3c(=O)c4cccn4c4cccnc43)CC2)c1C [1{25}] | – | > 32 µM | – | – | > 32 µM | > 20 µM | – | – | – | – | – |
| COc1ccc(N2CCN(CCNC(=O)Cn3c(=O)c4cccn4c4c(C)ccnc43)CC2)cc1 [1{26}] | > 32 µM | > 32 µM | – | – | > 32 µM | – | – | – | – | – | – |
| COc1ccc(N2CCN(CCCCNC(=O)Cn3c(=O)c4cccn4c4c(C)ccnc43)CC2)cc1 [1{27}] | > 32 µM | > 32 µM | 0.005 µM | 1.25 µM | – | – | – | – | – | – | – |
| Fc1cccc(F)c1CSc1nnc(-c2ccccn2)n1Cc1ccco1 [2{41}] | – | – | – | – | – | – | > 20 µM | 0.055 µM | > 32 µM | > 32 µM | – |
| Cc1ccnc2c1n1cccc1c(=O)n2CC(=O)NCCCN1CCN(c2ccc(Cl)cc2)CC1 [Compound 1{6}] | > 32 µM | > 32 µM | 0.07 µM | 0.69 µM | – | – | – | – | – | – | – |
| O=C(Cn1c(=O)c2cccn2c2cccnc21)NCCCN1CCN(c2ccc3c(c2)OCO3)CC1 [Compound 1{10}] | > 32 µM | > 32 µM | 0.78 µM | 4.23 µM | – | – | – | – | – | – | – |
| O=C(Cn1c(=O)c2cccn2c2cccnc21)NCCCN1CCN(c2ccc(Cl)cc2)CC1 [Compound 1{11}] | > 32 µM | > 32 µM | 0.096 µM | 5.18 µM | – | – | – | – | – | – | – |
| O=C(Cn1c(=O)c2cccn2c2cccnc21)NCCCN1CCN(c2ccccc2)CC1 [Compound 1{13}] | > 32 µM | > 32 µM | 12.7 µM | > 20 µM | – | – | – | – | – | – | – |
| O=C(Cn1c(=O)c2cccn2c2cc(Br)cnc21)NCCCN1CCN(c2ccc(Cl)cc2)CC1 [Compound 1{15}] | 5.32 µM | > 32 µM | > 32 µM | > 20 µM | – | – | – | – | – | – | – |

| SMILES | IC50 (MOR [1]) | IC50 (DOR) | IC50 (KOR [2]; [8]) | IC50 (KOR [3]; [9]) | IC50 (KOR [2]) | IC50 (KOR [3]) | EC50 (KOR [4]) | Ki (KOR [5]) | EC50 (KOR [6]) | EC50 (MOR [7]) | Emax (%) (KOR [4]) |
| --- | --- | --- | --- | --- | --- | --- | --- | --- | --- | --- | --- |
| O=C(Cn1c(=O)c2cccn2c2cc(Br)cnc21)NCCCN1CCN(c2ccc3c(c2)OCO3)CC1 [Compound 1{17}] | > 32 µM | > 32 µM | 0.15 µM | 3.11 µM | – | – | – | – | – | – | – |
| O=C(Cn1c(=O)c2cccn2c2cccnc21)NCCCN1CCOCC1 [Compound 1{19}] | > 32 µM | > 32 µM | > 32 µM | > 20 µM | – | – | – | – | – | – | – |
| CN1CCN(CCCNC(=O)Cn2c(=O)c3cccn3c3cccnc32)CC1 [Compound 1{20}] | > 32 µM | > 32 µM | > 32 µM | > 20 µM | – | – | – | – | – | – | – |
| O=C(Cn1c(=O)c2cccn2c2cccnc21)NCCCN1CCCCC1 [Compound 1{21}] | > 32 µM | > 32 µM | > 32 µM | > 20 µM | – | – | – | – | – | – | – |
| O=C(Cn1c(=O)c2cccn2c2cccnc21)NCCCN1CCC(Cc2ccccc2)CC1 [Compound 1{22}] | > 32 µM | > 32 µM | – | 4.78 µM | – | – | – | – | – | – | – |
| O=C(Cn1c(=O)c2cccn2c2cccnc21)NCCCN1CCN(Cc2ccccc2)CC1 [Compound 1{23}] | > 32 µM | > 32 µM | 21.5 µM | > 20 µM | – | – | – | – | – | – | – |
| FC(F)(F)c1cc(CSc2nnc(-c3ccccn3)n2Cc2cccs2)ccc1Cl [Compound 2{11}] | – | – | – | – | – | – | 0.43 µM | 0.003 µM | 1.4 µM | > 32 µM | ~109% |
| Cc1ccc(CSc2nnc(-c3ccccn3)n2Cc2ccco2)cc1 [Compound 2{12}] | – | – | – | – | – | – | 6.2 ± 1.26 µM | 0.016 µM | 5.21 µM | > 32 µM | ~150% |
| Fc1cc(F)cc(CSc2nnc(-c3ccccn3)n2Cc2cccs2)c1 [Compound 2{17}] | – | – | – | – | – | – | 7.2 µM | 0.094 µM | > 17.8 µM | > 32 µM | ~150% |
| COc1ccc(CSc2nnc(-c3ccccn3)n2Cc2ccco2)cc1 [Compound 2{20}] | – | – | – | – | – | – | 7.7 ± 1.47 µM | 0.028 µM | 12.4 µM | > 32 µM | ~150% |
| COc1ccc(CSc2nnc(-c3ccccn3)n2Cc2cccs2)cc1 [Compound 2{21}] | – | – | – | – | – | – | 9.62 ± 1.32 µM | 0.0071 µM | 5.98 µM | > 32 µM | ~130% |
| c1ccc(CSc2nnc(-c3ccccn3)n2Cc2ccco2)cc1 [Compound 2{22}] | – | – | – | – | – | – | > 17.9 µM | 0.155 µM | > 32 µM | > 32 µM | Emax not reached |
| c1ccc(CSc2nnc(-c3ccccn3)n2Cc2cccs2)cc1 [Compound 2{23}] | – | – | – | – | – | – | 13.8 ± 1.18 µM | 0.138 µM | 23.5 µM | > 32 µM | ~150% |
| CC(C)c1ccc(CSc2nnc(-c3ccccn3)n2Cc2cccs2)cc1 [Compound 2{34}] | – | – | – | – | – | – | 3.66 µM | 0.0023 µM | 2.2 µM | > 32 µM | ~100% |
| Cc1ccccc1CSc1nnc(-c2ccccn2)n1Cc1ccco1 [Compound 2{35}] | – | – | – | – | – | – | > 18.8 µM | 0.123 µM | > 30 µM | > 32 µM | – |
| Cc1ccccc1CSc1nnc(-c2ccccn2)n1Cc1cccs1 [Compound 2{36}] | – | – | – | – | – | – | > 16 µM | 0.068 µM | 14.5 µM | > 32 µM | – |
| COc1cccc(CSc2nnc(-c3ccccn3)n2Cc2ccco2)c1 [Compound 2{37}] | – | – | – | – | – | – | > 17.6 µM | 0.067 µM | > 32 µM | > 32 µM | – |
| Fc1cccc(F)c1CSc1nnc(-c2ccccn2)n1Cc1cccs1 [Compound 2{42}] | – | – | – | – | – | – | > 19 µM | 0.078 µM | 20.9 µM | > 32 µM | – |
| Clc1ccccc1CSc1nnc(-c2ccccn2)n1Cc1ccco1 [Compound 2{47}] | – | – | – | – | – | – | 9.07 µM | 0.106 µM | 11.6 µM | > 32 µM | – |
